Measured values taken from a melting point compilation (Tetko et al.; mined from patent text by program, amines drawn as free bases though some values may be those of a salt).

| SMILES | melting point [°C] |
| --- | --- |
| O=S(=O)(Nc1c(Cl)ccc2cc(-c3ncc(CO)s3)[nH]c12)c1cccs1 | 197 to 199 |
| Cc1cc(-c2cccc(C(F)(F)F)c2)c2nc(OC(F)F)cnc2c1 | 103 to 104 |
| CCN1C(=O)C(C)(C)C(=O)N(C)c2cc(CN(CCn3c(=O)ccc4ccccc43)Cc3cnccc3C)ccc21 | 120 to 121 |
| CC(=O)N1CCN(c2cccc(-n3cnc4cc(C(C)O)ccc43)c2)CC1 (stereo unspecified) | 126 |
| O=C(O)c1ccc(NCCCc2ccccc2)cn1 | 167 to 169 |
| O=C1CNCC2=C1N=C1N=C(N3CCOCC3)NN1C2 | 308 to 310 |
| O=C(CCl)c1ncccn1 | 73 to 80 |
| Cc1cc(C)n(Cc2ccc(Cl)cc2Cl)c1/C=C/C(=O)O | 193 to 194 |
| CN(C)S(=O)(=O)c1ccc(N2CC(CO)OC2=O)cc1 (stereo unspecified) | 174 to 176 |
| OC(CCn1ccnc1)c1ccc2c(c1)Cc1ccccc1-2 (stereo unspecified) | 144 to 146 |
| CN(C)CCN(C1CCS(=O)(=O)C1)S(=O)(=O)c1ccc(Nc2nccc(Nc3ccc(F)cc3)n2)cc1 (stereo unspecified) | 162 to 165 |
| [N-]=[N+]=C1C(=O)Nc2cccc(Cl)c21 | 214 to 215 |
| Nc1nc(NCCN2CCOCC2)nc(-c2cc(Cl)ccc2Cl)n1 | 159 to 161 |
| OCC1OC(n2c(Cl)nc3cc(Br)c(Br)cc32)C(O)C1O (stereo unspecified) | 126 to 129 |
| O=C(c1ccc(O)cc1)c1c(Cc2ccccc2)oc2ccccc12 | 146 to 149 |
| CCN(C1CCN(C)CC1)S(=O)(=O)c1ccc(Nc2nccc(Nc3ccc(F)cc3)n2)cc1 | 154 |
| COc1cc(Nc2nc3c(s2)CCCC3c2ccccc2)ccc1C(=O)NN (stereo unspecified) | 297 to 299 |
| CC(O)c1cccc2c1OCO2 (stereo unspecified) | 45 to 46 |
| O=C(OCC1CCCCCCCCCC1)n1c(-c2cscn2)nc2ccccc21 | 86 to 87 |
| O=C(Nc1nccs1)C(CC1CCCC1)c1ccc(Cl)c([N+](=O)[O-])c1 (stereo unspecified) | 68 to 72 |
| O=C1CN2CCC1(Cc1ccccc1)CC2 | 111 |
| CS(=O)c1ccc(-c2cnn3c(O)ncnc23)cc1 (stereo unspecified) | 285 to 286 |
| COc1cccc2c(=O)c3cc(F)ccc3oc12 | 170 to 172 |
| COc1cc(Nc2c(C#N)cnc3cc(-c4ccc(C5OCCCO5)o4)ccc23)c(Cl)cc1Cl | 224 to 229 |
| COc1ccc(O)cc1CCc1ccc2nc[nH]c(=O)c2c1 | 221 to 224 |
| CNC(=O)c1cc(-c2ccc(SC)cc2)nn(CC2CC2)c1=O | 116 to 118 |

| SMILES | melting point [°C] |
| --- | --- |
| CC(C)n1nc(-c2sc(C(=O)N3CCCC3)nc2-c2ccccc2)ccc1=O | 169 to 170 |
| COCOCc1cccc(-c2ccc(C(=O)OC)cc2)c1 | 54 to 55 |
| O=C(c1ccc2n1Cc1ccccc1N(C(=O)c1ccc(-c3cccc4ccccc34)cc1)C2)N(CCO)CCO | 221 to 224 |
| c1ccc2c(c1)cc(Cn1ccnc1)c1ccsc12 | 109 to 111 |
| Nc1nc(-c2ccc(CCCCN3CCN(c4ccccc4)CC3)s2)cs1 | 165 to 167 |
| CC(C)(C)OC(=O)NCC1(CC#N)CCCCC1 | 54 to 58 |
| CS(=O)(=O)N1Cc2ccccc2C1 | 131 to 132 |
| C=C(c1cc(C(C)(C)C)cc2c1CCC2(C)C)c1sccc1C(=O)O | 148 to 150 |
| O=C1C=CC(=O)N1c1ccc(S(=O)(=O)C(I)I)cc1 | 217 |
| Cc1cc(Oc2ccc(-c3ccn(CC4CC4)c(=O)c3C#N)cc2F)cc(C)n1 | 201 |
| CCn1c2ccc(C(=O)CCCCl)cc2c2cc(C(=O)CCCCl)ccc21 | 106 to 108 |
| CNC(=O)c1cc2c(Oc3ccc(C4=NCCN4)cc3)cncc2s1 | > 280 |
| COC(OC)C1(C)CCc2c(C)c(O)c(C)c(C)c2O1 (stereo unspecified) | 102 to 106 |
| CC(O)c1ccc(C(O)(c2ccc3c(c2)c(-c2cccc(Cl)c2)cc(=O)n3C)c2cncn2C)cc1 (stereo unspecified) | 181 |
| CC(Oc1ccc(Cl)c(Cl)c1)c1ccnc2ncnn12 (stereo unspecified) | 146 to 149 |
| CCCCCCCCCCCCCCCc1cc(=O)c2c(O)cc(O)cc2o1 | 108 |
| O=C1N(Cc2ccccn2)c2ccc(Br)cc2C12COc1cc3c(cc12)OCCO3 (stereo unspecified) | > 250 |
| CSc1ccc([N+](=O)[O-])c(C#N)c1 | 112 to 113 |
| CN1CCSc2c(C(=O)NC3CN4CCC3CC4)cc(Cl)cc21 (stereo unspecified) | 195 to 196 |
| CCOC(=O)C1=C(COCc2nc(C)cs2)NC(C)=C(C(=O)OC)C1c1ccccc1Cl (stereo unspecified) | 107 to 110 |
| CCCn1nc(-c2ccc(OC)cc2)cc(C(=O)NC)c1=O | 106 to 107 |
| COc1cc2ncc(C#N)c(Nc3ccc(Sc4nccn4C)c(Cl)c3)c2cc1OC | 302 to 307 |
| CN(C)N=C(c1ccccc1)c1cc(C(C)(C)C)c(O)c(C(C)(C)C)c1 | 111 to 124 |
| CCC(=O)Nc1ccc(OC)c(=O)cc1 | 116 to 118 |
| CCCCCCCCCCCCCCCCC(C(=O)NC1=NN(c2ccccc2)C(=O)C1C)S(=O)(=O)O (stereo unspecified) | 240 |
| CCc1ccc(C(=O)O)c(N)c1 | 117 to 120 |

| SMILES | melting point [°C] |
| --- | --- |
| OC(CNCCNc1cccc2cn[nH]c12)COc1ccccc1 (stereo unspecified) | 117 to 119 |
| CN(C)C(=O)c1ccccc1Sc1ccc(Cl)cc1C=O | 87 to 88 |
| COc1ccc(C(=O)Nc2cccnc2)cc1NCc1cccs1 | 154 to 155 |
| O=c1oc(-c2ccccc2)cc(O)c1SCCc1cccc(Cl)c1 | 133 to 134 |
| COc1ccc(C(CS(C)(=O)=O)N2C(=O)c3cccc(NC(C)=O)c3C2=O)cc1OCC1CC1 (stereo unspecified) | 102 to 104 |
| CN(C)[C@@H]1CN2C(=O)N(c3cc(Cl)cc(Cl)c3)C(=O)[C@@]2(Cc2ccc(Br)cc2)C1 | 54 |
| COc1cc([N+](=O)[O-])ccc1S(=O)(=O)n1c(=O)n(C2CCCCCC2)c2cc(Cl)ccc21 | 193 |
| CC(=NO)[C@H]1C[C@H](C(=O)OC(C)(C)C)N(C(=O)CNC(=O)Nc2cccc(C(=O)O)c2)[C@@H]1c1ccccc1 (racemic) | 180 |
| OCCc1ccc(OCc2ccc3ccccc3n2)cc1 | 145 |
| CCOCc1nc2c(N)nc(C)c(C)c2n1CCC1CCN(C(=O)C(C)C)CC1 | 168 to 169 |
| O=c1[nH]c2cc([N+](=O)[O-])ccc2c(O)c1-c1ccccc1 | > 330 |
| Nc1nc2ccc(S(=O)(=O)n3c(CCC(=O)O)cc4cc(C(F)(F)F)ccc43)cc2s1 | > 250 |
| O=C(Nc1ccccc1)n1cc(F)c(NCc2ccccc2F)nc1=O | 154 to 157 |
| O=C(N1CCN(c2ncccn2)CC1)N1CC(Oc2cccc(C(F)(F)F)c2)C1 | 127 to 128 |
| NC(=O)N(O)CCNC(=O)c1cccc(Oc2ccc(Cl)cc2)c1 | 146 to 147 |
| CCOCc1nc2c(Cl)nc(C)c(C)c2n1NC1CCOCC1 | 137 to 139 |
| CCCCCCCCCCCCOCC(CO)(CO)COCCCCCCCCCCCC | 54 to 55 |
| Cc1ccnc(CCOc2ccc(NC(=O)N(C)C)cc2)c1 | 132 to 133 |
| CCOCc1nc2cnc3cc(-c4ccccc4)ccc3c2n1CCOc1ccccc1 | 137 to 138 |
| Cc1cc(OCc2ccc(-c3ccc(C(F)(F)F)cc3)nc2C)ccc1OC(C)(C)C(=O)O | 164 to 165 |
| c1nnc2c3c(c(NCCN4CCCC4)nn12)CCCC3 | 160 to 162 |
| CCCc1nc2c(N)nc3cc(OCc4ccc(F)cc4)ccc3c2n1CC(C)C | 198 to 200 |
| CCCC(NS(=O)(=O)c1ccc(Cl)cc1)C(=S)Nc1ccc(CC(=O)OCC)cc1 (racemic) | 121 to 123 |
| Cc1cc(OCc2sc(-c3ccc(C(F)(F)F)cc3)nc2C)ccc1OC(C)(C)C(=O)O | 154 |
| CC(C)N(C(N)=O)c1ccc2c(c1)OCO2 | 116 to 119 |
| CC1(C)CNc2cc(Br)ccc21 | 100 to 102 |

| SMILES | melting point [°C] |
| --- | --- |
| CNCCC1CCc2cc(OCc3ccc(-c4ccccc4)cc3)ccc2C1 (stereo unspecified) | 75 to 76 |
| CCCCCCCCCCCCCCCC(=O)C1(O)OC(COCc2ccccc2)C(OCc2ccccc2)C(OCc2ccccc2)C1OCc1ccccc1 (stereo unspecified) | 52 to 53 |
| CCOC(=O)C1=C(N2CCCC2)N=C(C)C(C(=O)OCC)C1c1ccccc1 (stereo unspecified) | 57 |
| CC(C)(C)OC(=O)NC[C@H]1CC[C@H](CNS(=O)(=O)c2cccc3ccccc23)CC1 | 199 to 200 |
| O=C(CNC(=O)c1ccc([N+](=O)[O-])c(F)c1)OCC(Cl)(Cl)Cl | 142 to 144 |
| Cc1ccc(N(C(=O)CCl)c2c(F)cc(F)cc2Cl)cc1 | 137 to 140 |
| Cc1[nH]c(C=O)c(C)c1CCCCO | 99 |
| CC(C)N(C)c1ncc(C2CC2(C)C(N)=O)cc1Cl (stereo unspecified) | 86 to 87 |
| CCC1=C(O)C(=O)CC1 | 39 to 41 |
| CCCC[C@H](NC(=O)[C@H](CC(C)C)NC(=O)c1ccc(C(F)(F)F)cc1)C(=O)CSCc1ccco1 | 121 to 123 |
| CCN1C=C(C(=O)O)C(=O)CC1c1ccc(OC)c(OC)c1 (stereo unspecified) | 182 to 183 |
| CCOc1nn(Cc2ccc(OCc3ccc(-c4ccccc4)cn3)cc2)cc1CCC(=O)O | 127 to 128 |
| COC(=O)CCCCCCCNC(=O)C(CSC(C)=O)Cc1ccccc1 (stereo unspecified) | 44 to 45 |
| N#Cc1cc(NC(=O)c2cc3ccccc3s2)ccc1N1CCC(O)CC1 | 224 to 225 |
| Clc1cccc(Nc2ncnc3[nH]nc(NCc4ccccc4)c23)c1 | 214 to 217 |
| CC1=CC(C)(C)OC(c2nsc3ccc(-n4c(=O)cc(C(F)(F)F)n(C)c4=O)cc23)C1 (stereo unspecified) | 88 to 92 |
| COc1ccc(CBr)cc1-c1nsc2ccc(-n3c(=O)cc(C(F)(F)F)n(C)c3=O)cc12 | 158 to 160 |
| CC(C(N)=O)N1CCN(c2ccccn2)CC1 (stereo unspecified) | 130 to 132 |
| CCOc1ccc(C2=NN(C(=O)c3cccnc3)CC2)cc1 | 124 to 125 |
| O=[N+]([O-])c1cnc2ccccc2c1Cl | 118 to 119 |
| O=C(CC(CC1CCCCC1)(C(=O)O)C(=O)O)c1ccco1 | 127 to 130 |
| CCOc1cc(C)c(C(=O)N=C(N)N)cc1S(C)(=O)=O | 201 to 203 |
| CN1CCN(CCCn2c(N)nc3ccccc32)CC1 | 195 to 197 |
